{"source": "patent US12678518B2", "about": "“Theranostic probe and its use for targeting and/or labeling the EGFR kinase and/or the cells expressing EGFR or its family members” (Tianjin University, priority 2019, dated 2026)", "molecular_target": "T1, EGFR dimers (L834R/V924R) (Homo sapiens, UniProt P00533, L858R/V948R)", "T1 construct": "one encoding human EGFR(1-998) fused with a split YFP-N(1-172) fragment; the other encoding hEGFR(1-998) linked to a split YFP-C(155-238) fragment; expressed in transfected cells; host or cells: HEK 293T", "test": "Protein complementary assay (split YFP), PDCy3 binding to EGFR dimers, L834R with V924R", "format": "cell-based", "conditions": "V924R on top of L834R, 1 μM PDCy3", "from_the_text": "Protein complementary assay. For protein complementary assay, we designed two complementary constructs: one encoding human EGFR(1-998) fused with a split YFP-N(1-172) fragment, and the other encoding hEGFR(1-998) linked to a split YFP-C(155-238) fragment. Kinase mutations were introduced on both constructs to make a complementary pair. All the constructs were verified by sequencing. The paired constructs encoding the same receptor were co-transfected into HEK 293T cells. Transfected cells were starved in EX-Cell 293 Serum-Free Medium for 44 hours before treatment with 1 μM PDCy3 for additional 4 hours. The dimerization of the EGF receptors and the binding of dimerized receptors to PDCy3 were analyzed by flowcytometry.\nTo further investigate how EGFR kinase dimerization affects PDCy3 binding, we did a protein complementary assay. In the assay, split YFP fragments were individually fused to the C-terminus of the full length EGFR, and EGF kinase dimerization was reported by the fluorescence of assembled YPF from co-transfected receptors (FIG. 4A)^23. As shown in the FIG. 4B, the cells with co-expressed EGFR dimers could be divided into two populations. In one population, the quantity of bound PDCy3 increased linearly as a function of the expression levels of EGFR dimers (FIG. 4C). But in the other population, the quantity of bound PDCy3 was independent of the expressed EGFR dimers. […]"}
{"smiles": "CN1/C(=C/C=C/C2=[N+](CCCCCC(=O)NCCC/C=C/C(=O)Nc3ccc4ncnc(Nc5cccc(Br)c5)c4c3)c3ccc(S(=O)(=O)O)cc3C2(C)C)C(C)(C)c2cc(S(=O)(=O)[O-])ccc21", "note": "[PDCy3, 1-(6-((E)-6-(4-(3-bromophenylamino)quinazolin-6-ylamino)-6-oxohex-4-enylamino)-6-oxohexyl)-3,3-dimethyl-2-((1E,3E)-3-(1,3,3-trimethyl-5-sulfonatoindolin-2-ylidene)prop-1-enyl)-3H-indolium-5-sulfonate]", "values": [{"measurement": "fraction of the population with the higher sensitivity to PDCy3 (population A)", "value": 49.2, "unit": "%"}]}
